In ChEMBL document CHEMBL5370568, “Discovery of Coixol Derivatives as Potent Anti-inflammatory Agents” (J Nat Prod, 2023):

Assays:
RAW264.7 = assay: Antiinflammatory activity in LPS-induced mouse RAW264.7 cells assessed as inhibition of NO production at 20 uM pretreated for 1 hr followed by LPS stimulation and measured after 24 hrs by griess reagent based assay relative to control; assay type: functional; settings: time 25 hrs
[1] = Cytotoxicity against mouse RAW264.7 cells incubated for 24 hrs by MTT assay; assay type: toxicity, cell-based

## COc1ccc2c(c1)oc(=O)n2CCNC(=O)/C=C/c1ccc(C(F)(F)F)cc1
RAW264.7
  inhibition at 20 µM: 42%
[1]
  IC50 at 24 h: 69.5 µM

## O=C(/C=C/c1ccco1)NCCn1c(=O)oc2cc(Br)ccc21
RAW264.7
  inhibition at 20 µM: 75.3%
[1]
  IC50 at 24 h: 68.9 µM

## COc1ccc2c(c1)oc(=O)n2CCNC(=O)/C=C/c1ccc(OC)c(OC)c1
RAW264.7
  inhibition at 20 µM: 8.9%
[1]
  IC50 at 24 h: > 100 µM

## COc1ccc2c(c1)oc(=O)n2CCNC(=O)/C=C/c1ccc(Cl)cc1
RAW264.7
  inhibition at 20 µM: 38.3%
[1]
  IC50 at 24 h: > 100 µM

## COc1ccc2c(c1)oc(=O)n2CCNC(=O)/C=C/c1ccc(F)cc1
RAW264.7
  inhibition at 20 µM: 4.4%
[1]
  IC50 at 24 h: > 100 µM

## COc1ccc2c(c1)oc(=O)n2CCNC(=O)/C=C/c1ccccc1
RAW264.7
  inhibition at 20 µM: 30.2%
[1]
  IC50 at 24 h: > 100 µM

## COc1ccc2c(c1)oc(=O)n2CCNC(=O)/C=C/c1ccc(O)c(OC)c1
RAW264.7
  inhibition at 20 µM: 7.2%
[1]
  IC50 at 24 h: > 100 µM

## COc1ccc2c(c1)oc(=O)n2CCNC(=O)/C=C/c1ccccn1
RAW264.7
  inhibition at 20 µM: 42.8%
[1]
  IC50 at 24 h: > 100 µM

## COc1ccc(/C=C/C(=O)NCCn2c(=O)oc3cc(OC)ccc32)cc1
RAW264.7
  inhibition at 20 µM: 45.9%
[1]
  IC50 at 24 h: 68.8 µM

## COc1ccc(C(C)=O)c(OCCNC(=O)/C=C/c2cc(OC)c(OC)c(OC)c2)c1
RAW264.7
  inhibition at 20 µM: 88.8%

## COc1ccc2c(c1)oc(=O)n2CCNC(=O)/C=C/c1ccc(O)cc1
RAW264.7
  inhibition at 20 µM: 45.4%
[1]
  IC50 at 24 h: 59 µM

## COc1ccc2c(c1)oc(=O)n2CCNC(=O)/C=C/c1ccc(C)cc1
RAW264.7
  inhibition at 20 µM: 30.2%
[1]
  IC50 at 24 h: > 100 µM

## COc1cccc(/C=C/C(=O)NCCn2c(=O)oc3cc(OC)ccc32)c1
RAW264.7
  inhibition at 20 µM: 9.3%
[1]
  IC50 at 24 h: > 100 µM

## COc1ccc2c(c1)oc(=O)n2CCNC(=O)/C=C/c1ccccc1OC
RAW264.7
  inhibition at 20 µM: 6.4%
[1]
  IC50 at 24 h: 80.2 µM
